Structures can show the parent of a compound that is named as a salt.
Assay: in vitro
Settings: rat, gh3-tre-luc cells, AC50 (uM) modified / 1000

Point of comparison: `COc1cccc(-c2ccc(/C=C\CN3CCCCCC3)cc2Cl)c1` [SR125047], CC50 at 24 h 17.7 µM. Against it:
- O=C1O[C@H]2[C@H](O)[C@@H]1OC(O)[C@H]2O (some centres unmarked) [Mannuronic acid lactone] — higher, > 50 µM
- CCN(Cc1c(F)cccc1Cl)c1c([N+](=O)[O-])cc(C(F)(F)F)cc1[N+](=O)[O-] [Flumetralin] — higher, > 90 µM
- OC1CCC(C2CCCCC2)CC1 (centres unmarked) [4-Cyclohexylcyclohexanol] — higher, > 90 µM
- N=C(N)c1ccc(/C=C/c2ccc(C(=N)N)cc2O)cc1 [Hydroxystilbamidine bis(methanesulfonate)] — higher, > 50 µM
- O=C(O)c1ccccc1S [2-Thiosalicylic acid] — higher, > 50 µM
- CCCC(=O)N1CCCN(c2nc(N)c3cc(OC)c(OC)cc3n2)CC1 [Bunazosin hydrochloride] — higher, > 50 µM
- Nc1ccn([C@@H]2CS[C@H](CO)O2)c(=O)n1 [Lamivudine] — higher, > 90 µM
- CC(=O)CC(=O)N(C)C [N,N-Dimethylacetoacetamide] — higher, > 90 µM
- [2H]C([2H])([2H])[C@H](N)Cc1ccccc1 [D-Amphetamine-d3 hemisulfate] — higher, > 50 µM
- CC(/C=C/C=C(\C)C(=O)O[C@@H]1O[C@H](CO[C@@H]2O[C@H](CO)[C@@H](O)[C@H](O)[C@H]2O)[C@@H](O)[C@H](O)[C@H]1O)=C\C=C\C=C(C)\C=C\C=C(/C)C(=O)O[C@@H]1O[C@H](CO[C@@H]2O[C@H](CO)[C@@H](O)[C@H](O)[C@H]2O)[C@@H](O)[C@H](O)[C@H]1O [Crocin] — higher, > 50 µM
- N[C@@H](Cc1ccc(O)cc1)C(=O)O [L-Tyrosine] — higher, > 50 µM
- O=C(CC(C(=O)OC1CCCCC1)S(=O)(=O)O)OC1CCCCC1 (centres unmarked) [Dicyclohexyl sodium sulfosuccinate] — higher, > 90 µM
- COCCCN [3-Methoxypropylamine] — higher, > 90 µM
- Cc1ccc(C)c(C)c1 [1,2,4-Trimethylbenzene] — higher, > 90 µM
- CC(C)C[P+](C)(CC(C)C)CC(C)C [Triisobutylmethylphosphonium tosylate] — higher, > 90 µM
- CCCc1cc(=O)[nH]c(=S)[nH]1 [6-Propyl-2-thiouracil] — higher, > 90 µM
- CCOC(=O)c1ncn2c1CN(C)C(=O)c1cc(F)ccc1-2 [Flumazenil] — higher, > 50 µM
- O=C(c1ccc(F)cc1)C1CCN(CCn2c(=O)[nH]c3ccccc3c2=O)CC1 [Ketanserin] — higher, > 50 µM
- CCC(=O)c1ccc2c(c1)N(CCCN1CCN(CCO)CC1)c1ccccc1S2 [Carphenazine dimaleate] — 2.6-fold lower, 6.82 µM
- CC(C)=CCC/C(C)=C/C=C/C(C)=C/C=C/C(C)=C/C=C/C=C(C)/C=C/C=C(C)/C=C/C=C(\C)CCC=C(C)C [Lycopene] — higher, > 50 µM
- CCC(C)COC(C)=O (centres unmarked) [2-Methylbutyl acetate] — higher, > 90 µM
- COC(=O)c1ccc(CBr)cc1 [Methyl 4-(bromomethyl)benzoate] — higher, > 90 µM
- C=CC(=O)OCCCC [Butyl acrylate] — higher, > 90 µM
- NS(=O)(=O)c1cc2c(cc1Cl)N=C(CSCc1ccccc1)NS2(=O)=O [Benzthiazide] — higher, > 20 µM
- CCCCCOC(=O)COc1cc(N2C(=O)C3=C(CCCC3)C2=O)c(F)cc1Cl [Flumiclorac-pentyl] — higher, > 90 µM
- O=C(O)c1c(Cl)ccc(Cl)c1Cl [2,3,6-Trichlorobenzoic acid] — higher, > 90 µM
- Cc1nc(C)c(C)nc1C [Tetramethylpyrazine] — higher, > 90 µM
- O=C(O)c1cc2ccccc2nc1C(=O)O [2,3-Quinolinedicarboxylic acid] — higher, > 90 µM
- O=c1oc2ccccc2c(O)c1C(CC(O)c1ccc(-c2ccc(Br)cc2)cc1)c1ccccc1 (centres unmarked) [Bromadiolone] — higher, > 90 µM
- CCOC(=O)C(C)O (centres unmarked) [Ethyl lactate] — higher, > 90 µM
- Nc1nc(/C(=C/CC(=O)O)C(=O)N[C@@H]2C(=O)N3C(C(=O)O)=CCS[C@H]23)cs1 [Ceftibuten] — higher, > 50 µM
- O=C(O)c1cccc(Oc2ccccc2)c1 [3-Phenoxybenzoic acid] — higher, > 90 µM
- CCN(CC)S(=O)(=O)c1ccc(C(=O)O)cc1 [Ethebenecid] — higher, > 50 µM
- C=O [Formalin] — higher, > 100 µM
- N=C(N)NN [Aminoguanidine hydrochloride] — higher, > 90 µM
- OC[C@@H](O)[C@@H](O)[C@H](O)[C@@H](O)CO [D-Glucitol] — higher, > 90 µM
- CC(=O)SC[C@@H](C)C(=O)N1CCC[C@H]1C(=O)N[C@@H](Cc1ccccc1)C(=O)O [Alacepril] — higher, > 50 µM
- Cc1cccc2c1cc1ccc3cccc4ccc2c1c34 [7-Methylbenzo(a)pyrene] — higher, > 90 µM
- COc1ccc2cc([C@H](C)CO)ccc2c1 [Naproxol] — higher, > 50 µM
- C1CN2CCN1CC2 [1,4-Diazabicyclo[2.2.2]octane] — higher, > 100 µM
- COCC(=O)Nc1c(I)c(C(=O)NCC(O)CO)c(I)c(C(=O)N(C)CC(O)CO)c1I (mixture of isomers) [Iopromide] — higher, > 20 µM
- CCCCOC(=O)C(=O)OCCCC [Dibutyl ethanedioate] — higher, > 90 µM
- Nc1nc[nH]n1 [Amitrole] — higher, > 90 µM
- CCCCC1CCC(=O)O1 (centres unmarked) [4-Octanolide] — higher, > 90 µM
- Cc1ccc(C(C)C)cc2c(C)ccc1-2 [Guaiazulene] — higher, > 50 µM
- CC(CO)Oc1ccccc1 (centres unmarked) [2-Phenoxy-1-propanol] — higher, > 90 µM
- Cc1cc(NC(=O)C2=C(O)c3ccccc3S(=O)(=O)N2C)no1 [Isoxicam] — higher, > 50 µM
- Cc1nc(-c2ccc(OCC(C)C)c(C#N)c2)sc1C(=O)O [Febuxostat] — higher, > 50 µM
- CC=C(C)C(=O)OCCC(C)CCC=C(C)C (centres unmarked) [3,7-Dimethyloct-6-en-1-yl 2-methylbut-2-enoate] — higher, > 90 µM
- COc1ccc2c3c1O[C@H]1C[C@@H](O)C=C[C@@]31CCN(C)C2 [Galanthamine] — higher, > 50 µM
- CC(=O)N[C@H]1C(O)O[C@H](CO)[C@H](O)[C@@H]1O (some centres unmarked) [N-Acetylgalactosamine] — higher, > 50 µM
- Cc1ccnc2c1NC(=O)c1cccnc1N2C1CC1 [Nevirapine] — higher, > 90 µM
- CN(C)CCCCl [Dimethylaminopropyl chloride hydrochloride] — higher, > 100 µM
- c1ccc2c(c1)oc1ccccc12 [Dibenzofuran] — higher, > 90 µM
- OC1(c2ccc(Cl)c(C(F)(F)F)c2)CCN(CCCC(c2ccc(F)cc2)c2ccc(F)cc2)CC1 [Penfluridol] — 4.4-fold lower, 3.98 µM
- Nc1ncc([N+](=O)[O-])s1 [2-Amino-5-nitrothiazole] — higher, > 90 µM
- COC(=O)[C@H](c1ccccc1Cl)N1CCc2sccc2C1 [Clopidogrel hydrogen sulfate] — higher, > 50 µM
- COC(=O)c1ccc(C)cc1 [Methyl 4-methylbenzoate] — higher, > 90 µM
- O=C(O)C(c1ccc(Cl)cc1)c1ccc(Cl)cc1 [p,p'-DDA] — higher, > 90 µM
- CCCCCCC(=O)c1ccccc1 [Heptanophenone] — higher, > 90 µM
- c1ccc2c(c1)Sc1ccccc1N2CCN1CCCC1 [Pyrathiazine] — within 1.5-fold, 19.5 µM
- COc1cc2c(cc1OC)-c1c/c(=N\c3c(C)cc(C)cc3C)n(C)c(=O)n1CC2 [Trequinsin hydrochloride] — within 1.5-fold, 20.3 µM
- Oc1ccc2[nH]cc(CCCCN3CC=C(c4ccccc4)CC3)c2c1 [Roxindole] — 2.3-fold lower, 7.71 µM
- CCCC/C=C\CCCCCCCCCC=O [(Z)-11-Hexadecenal] — higher, > 90 µM
- O=C(CCCN1CC=C(n2c(=O)[nH]c3ccccc32)CC1)c1ccc(F)cc1 [Droperidol] — higher, > 50 µM
- C[C@@H]1C[C@H]2[C@@H]3CCC4=CC(=O)C=C[C@]4(C)[C@@]3(Cl)[C@@H](O)C[C@]2(C)[C@@]1(OC(=O)c1ccco1)C(=O)CCl [Mometasone furoate] — higher, > 20 µM
- c1ccc(CCNc2nc(-c3ccccc3)cs2)cc1 [Fanetizole] — higher, > 50 µM
- O=Cc1cc2ccccc2o1 [2-Benzofurancarboxaldehyde] — higher, > 90 µM
- CN [Methylammonium nitrate] — higher, > 100 µM
- CCCOc1ccc2nc(NC(=O)OC)sc2c1 [Tioxidazole] — 7.4-fold lower, 2.38 µM
- Oc1cc(O)c(Cl)cc1Cl [4,6-Dichloro-1,3-benzenediol] — higher, > 90 µM
- Clc1cc(Cl)c(Cl)cc1Cl [1,2,4,5-Tetrachlorobenzene] — higher, > 90 µM
- CC(C)(O)C(Cl)(Cl)Cl [1,1,1-Trichloro-2-methyl-2-propanol] — higher, > 50 µM
- CC(C)=CC(C)(C)C [2,4,4-Trimethyl-2-pentene] — higher, > 90 µM
- COC(=O)c1ccccc1S(=O)(=O)NC(=O)Nc1nc(C)nc(OC)n1 [Metsulfuron-methyl] — higher, > 90 µM
- CC1=C[C@H](O)CC(C)(C)[C@H]1/C=C/C(C)=C/C=C/C(C)=C/C=C/C=C(C)/C=C/C=C(C)/C=C/C1=C(C)C[C@@H](O)CC1(C)C [Lutein] — 1.6-fold higher, 28.4 µM
- Cn1c(CCCC(=O)O)nc2cc(N(CCCl)CCCl)ccc21 [Bendamustine] — higher, > 50 µM
- O=C(O)C1=C(CSc2nnnn2CS(=O)(=O)O)CS[C@@H]2[C@H](NC(=O)[C@H](O)c3ccccc3)C(=O)N12 [Cefonicid sodium] — higher, > 50 µM
- CC(C)N(C(=O)COc1nnc(C(F)(F)F)s1)c1ccc(F)cc1 [Flufenacet] — higher, > 90 µM
- CCc1cccc(C)c1 [3-Ethyltoluene] — higher, > 90 µM

Same assay, conditions: rat, gh3-tre-luc cells, AC50 (uM) modified / 1000, Tox21_110001=Tox21_112703; viability, 1 nM T3 present, 24 h

In the case of `CN(C)C(Cc1ccccc1)c1ccccc1` (centres unmarked) [N,N-Dimethyl-1,2-diphenylethanamine], the CC50 at 24 h is reported as > 50 µM.

Same assay, conditions: rat, gh3-tre-luc cells, AC50 (uM) modified / 1000, Tox21_110001=Tox21_200404; viability, 1 nM T3 present, 24 h

In the case of `CCC(C)Cl` (centres unmarked) [2-Chlorobutane], the CC50 at 24 h is reported as > 90 µM.

Same assay, conditions: rat, gh3-tre-luc cells, AC50 (uM) modified / 1000, Tox21_110001=Tox21_202349; viability, 1 nM T3 present, 24 h

For `CCCCCc1cc(O)cc(O)c1` [Olivetol], the CC50 at 24 h was 78.4 µM.

Same assay, conditions: rat, gh3-tre-luc cells, AC50 (uM) modified / 1000, Tox21_110001=Tox21_301355; viability, 1 nM T3 present, 24 h

For `CCOP(=O)(Sc1ccccc1)Sc1ccccc1` [Edifenphos], the CC50 at 24 h was > 90 µM.

Same assay, conditions: rat, gh3-tre-luc cells, AC50 (uM) modified / 1000, Tox21_110001=Tox21_303332; viability, 1 nM T3 present, 24 h

For `CCCCCc1cc(O)cc(O)c1` [Olivetol], the CC50 at 24 h was 75.4 µM.

Source: publication PMC6792352, “Limited Chemical Structural Diversity Found to Modulate Thyroid Hormone Receptor in the Tox21 Chemical Library” (Environmental Health Perspectives, 2019)
